From article PMC6385020 (Molecules, 2019)

What was measured:
[1] = tested on: F-21-T (DNA, G4) GGGTTAGGGTTAGGGTTAGGG; experiment: FRET-melting; conditions: 10 mM KCl, 90 mM LiCl; 10 mM lithium cacodylate pH 7.3; 1 µM compound, 0.2 µM DNA
[2] = tested on: ds26 (DNA, duplex) CAATCGGATCGAATTCGATCCGATTG; experiment: G4-FID, thiazole orange displacement; conditions: 100 mM KCl; 10 mM lithium cacodylate pH 7.3, 1% DMSO; thiazole orange displaced; 1 µM compound, 0.25 µM DNA
duplex ds26 DNA = experiment: TO-PRO-3 G4-FID assay; type: binding; conditions: ds26, K+100 buffer
Experimental: For the G4-FID assay, the oligonucleotides were dissolved in K^+100 buffer (10 mM lithium cacodylate buffer pH 7.3, 100 mM KCl, 1% DMSO). Oligonucleotide concentrations were determined on the basis of their absorbance at 260 nm. For the fluorimetric titration, the oligonucleotides were dissolved in K^+100 buffer without DMSO. For the FRET-melting assay, the oligonucleotides were dissolved in K^+1 buffer (10 mM lithium cacodylate buffer pH 7.3, 1 mM KCl, 99 mM LiCl) except for F-21-T. F-21-T was dissolved in K^+10 buffer (10 mM lithium cacodylate buffer pH 7.3, 10 mM KCl, 90 mM LiCl). […]
Each G4-FID assay was performed in a 96-well Non-Binding Surface black with black bottom polystyrene microplates (Corning). […] After 5 min of orbital shaking at 500 rpm, fluorescence is measured using the following experimental parameters: positioning delay of 0.5 s, 20 flashes per well, emission/excitation filters for TO at 485/520, TO-PRO-3 at 620/670, and PhenDV at 355/520 gain adjusted at 80% of the fluorescence from the most fluorescent well (i.e., a well from column A for TO and a well from column H).
The percentage of TO displacement is calculated from the fluorescence intensity (F), using (1) % TO displacement=1−F/F0 where F0 is the fluorescence from the fluorescent probe bound to DNA without added ligand. […]

[3] = tested on: 22AG human telomeric sequence G4; experiment: TO-PRO-3 G4-FID assay; type: binding; conditions: TO-PRO-3 2 eq, K+100 buffer
Experimental: (§1) For the G4-FID assay, the oligonucleotides were dissolved in K^+100 buffer (10 mM lithium cacodylate buffer pH 7.3, 100 mM KCl, 1% DMSO). Oligonucleotide concentrations were determined on the basis of their absorbance at 260 nm. For the fluorimetric titration, the oligonucleotides were dissolved in K^+100 buffer without DMSO. For the FRET-melting assay, the oligonucleotides were dissolved in K^+1 buffer (10 mM lithium cacodylate buffer pH 7.3, 1 mM KCl, 99 mM LiCl) except for F-21-T. F-21-T was dissolved in K^+10 buffer (10 mM lithium cacodylate buffer pH 7.3, 10 mM KCl, 90 mM LiCl).
(§2) Prior to use, all oligonucleotides were pretreated by heating at 95 °C for 5 min, then rapidly cooled to 4 °C to favor the intramolecular folding by kinetic trapping. Duplex-DNA ds26 was prepared by heating the self-complementary strand at 90 °C for 5 min in K^+1 buffer followed by a slow cooling over 6 h.
(§3) Each G4-FID assay was performed in a 96-well Non-Binding Surface black with black bottom polystyrene microplates (Corning). Every ligand was tested on a line of the microplate, in duplicate. The microplate was filled with (a) K^+100 solution (qs for 200 μL), (b) 10 μL of a solution of pre-folded oligonucleotides (5 μM) and fluorescent probe (TO/TO-PRO-3 (10 μM—2 eq) or PhenDV (7,5 µM—1.5 eq)), and (c) an extemporaneously prepared 5 μM ligand solution in K^+100 buffer (0 to 100 μL) along the line of the microplate, i.e., from column A to column H: 0, 0.125, 0.25, 0.375, 0.5, 0.625, 0.75, 1.0, 1.25, 1.5, 2.0, and 2.5 μM. After 5 min of orbital shaking at 500 rpm, fluorescence is measured using the following experimental parameters: positioning delay of 0.5 s, 20 flashes per well, emission/excitation filters for TO at 485/520, TO-PRO-3 at 620/670, and PhenDV at 355/520 gain adjusted at 80% of the fluorescence from the most fluorescent well (i.e., a well from column A for TO and a well from column H).
(§4) The percentage of TO displacement is calculated from the fluorescence intensity (F), using (1) % TO displacement=1−F/F0 where F0 is the fluorescence from the fluorescent probe bound to DNA without added ligand.
(§5) The PhenDV displacement is calculated from the fluorescence intensity F; F(ligand+probe), which refers to the fluorescence of the probe in presence of the ligand (without G4); and F0, which is the fluorescence without added ligand. The term F(ligand+probe) is necessary as the ligand can quench the fluorescence of the probe. The percentage of displacement is then plotted as a function of the concentration of the added ligand. The DNA affinity was evaluated by the concentration of ligand required to decrease the fluorescence of the probe by 50%, was noted DC50, and was determined after non-linear fitting of the displacement curve.

c-myc G4 = experiment: TO-PRO-3 G4-FID assay; type: binding; conditions: TO-PRO-3 2 eq, K+100 buffer
Experimental: as §1, §2, §3, §4, §5

[4] = tested on: CEB25-WT minisatellite sequence G4; experiment: TO-PRO-3 G4-FID assay; type: binding; conditions: TO-PRO-3 2 eq, K+100 buffer
Experimental: as §1, §2, §3, §4, §5

[5] = tested on: 21CTA human telomeric sequence variant G4; type: binding; conditions: K+100 buffer; for % of TO displacement at 1 µM of ligand: TO 2 eq; for % of TOPRO3 displacement at 1 µM of ligand: TO-PRO-3 2 eq
Experimental: as §1, §2, §3, §4, §5

22AG human telomeric G4 = experiment: Platination of 22AG followed by denaturing gel electrophoresis; type: biochemical; conditions: 0.2 µM 22AG, 1 µM complex, 25 to 95 °C gradient, K+10 buffer
Source text: Since all these complexes (except for Pt(PA)-tpy) are susceptible to induce platination reactions, they can be exacerbated by a high temperature and by an increased number of nucleophilic sites which are exposed during unfolding (increased N7 G free sites); we wonder if such a reaction could occur during FRET-melting experiments and to what extent. Therefore, we followed the extent of platination reactions of c-myc and 22AG (same sequences as those used for FRET-melting but without fluorophore labeling) as a function of the melting temperature using ^32P-labelled oligonucleotides and denaturing gel electrophoresis (Figure 2).
The oligonucleotides were 5’-end-labelled using a polynucleotide kinase and (γ^32P)-ATP (Perkin Helmer). The reaction products were purified by electrophoresis on 20% denaturing gel. Sample platinations were prepared by folding a mixture of 5’-end-radiolabeled DNA and 10 µM or 100 µM of non-radiolabeled material in 100 mM KClO4 or 100 mM KCl solution except for the platination reaction in the denaturing temperature conditions. The folding was achieved by heating the samples at 90 °C for 5 min, followed by slow cooling to room temperature over the course of 2 h to induce the formation of the quadruplex structure. It was then incubated with platinum complexes, and platinated products were separated by electrophoresis on 15% denaturing gel. […]

[6] = tested on: c-myc (myc22) (DNA, G4) TGAGGGTGGGTAGGGTGGGTAA; experiment: G4-FID, thiazole orange displacement; conditions: 100 mM KCl; 10 mM lithium cacodylate pH 7.3, 1% DMSO; thiazole orange displaced; 1 µM compound, 0.25 µM DNA
[7] = tested on: CEB25-WT (DNA, G4) AAGGGTGGGTGTAAGTGTGGGTGGGT; experiment: G4-FID, TO-PRO-3 displacement; conditions: 100 mM KCl; 10 mM lithium cacodylate pH 7.3, 1% DMSO; TO-PRO-3 displaced; 1 µM compound, 0.25 µM DNA

Row | SMILES | ΔTm [1] [°C] | % TO displacement [2] [%] | % of TOPRO3 displacement at 1 µM of ligand (duplex ds26 DNA) [%] | % of TOPRO3 displacement at 1 µM of ligand [3] [%] | % of TOPRO3 displacement at 1 µM of ligand (c-myc G4) [%] | % of TOPRO3 displacement at 1 µM of ligand [4] [%] | % of TO displacement at 1 µM of ligand [5] [%] | % of TOPRO3 displacement at 1 µM of ligand [5] [%] | platination of 22AG during melting temperature experiments (22AG human telomeric G4) | % TO displacement [6] [%] | % TO-PRO-3 displacement [7]
1 | Cc1ccc(-c2cc(-c3ccccn3)nc(-c3ccccn3)c2)cc1.[Cl-].[Cl][Pt+] [Pt-ttpy] | > 10 | < 20 | 13 | 65 | 76 | 62 | 87 | 62 | clearly platinate | > 80 | –
2 | [Cl-].[Cl][Pt+].c1ccc(-c2cccc(-c3ccccn3)n2)nc1 [Pt-tpy] | – | – | – | 12 | 32 | – | 24 | 23 | clearly platinate | – | –
3 | CN(C)CCCNCc1ccc(-c2cc(-c3ccccn3)nc(-c3ccccn3)c2)cc1.[Cl-].[Cl][Pt+] [Pt-ctpy] | – | < 20 | 24 | 78 | 58 | 76 | 93 | 83 | – | > 80 | –
4 | CN(C)c1ccc(/C=C/c2cc(-c3ccccn3)nc(-c3ccccn3)n2)cc1.[Cl-].[Cl][Pt+] [Pt-vpym, Chloro-(E)-4-(2-(2,6-di(pyridin-2-yl)pyrimidin-4-yl)vinyl)-N,N-dimethylaniline-platinum(II) Chloride] | – | – | – | 28 | 32 | 23 | – | 32 | – | – | ~ 30%
5 | [Cl-].[Cl][Pt+].c1ccc(-c2cc(-c3ccc(OCCN4CCCC4)cc3)nc(-c3ccccn3)n2)nc1 [Pt-cpym, Chloro-(2,4-di(pyridin-2-yl)-6-(4-(2-(pyrrolidin-1-yl)ethoxy)phenyl)pyrimidine)-platinum(II) Chloride] | – | – | – | 25 | – | – | 82 | 25 | – | < 60 | –
